US20240246920A1, “TRIAZOLE DERIVATIVES WITH ANTIFUNGAL ACTIVITY” (King's College London, priority 2020, published 2024)
Values after ≈ are worked out from the molar mass of the structure shown. Where two headings read alike, the source gives them in different places.

Key:
C. albicans NCPF3281 = assay: Candida panel MIC, serial dilution in 96-well plates; type: cell-based, Candida albicans; settings: NCPF3281, read-out: MIC C. albicans NCPF3281
Procedure, shortened: (§1)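 Overnight starter cultures were diluted to OD600 0.01 and added to serially diluted compound (128 to 0.25 μg/mL) in MOPS-buffered RPMI with 2% glucose, pH 7.0, giving 0.5-5×10^5 cells/mL. After 24 h at 37 °C, OD530 was measured and the ≥50% inhibition endpoint taken as MIC.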

C. glabrata NCPF8018 = assay: as above; type: cell-based, Candida glabrata; settings: Nakaseomyces glabratus
Procedure, shortened: (§2)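 MIC taken as lowest concentration inhibiting growth ≥50% relative to drug-free control, from OD530 after 24 hours at 37° C. Fungi at 0.5-5×10^5/mL were exposed to serially diluted compound in RPMI 1640/MOPS/2% glucose medium adjusted to pH 7.0.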

C. krusei NCPF3876 = assay: microbe, parasite or virus in culture; type: cell-based, Candida krusei; settings: Pichia kudriavzevii
Procedure, shortened: as §2

C. parapsilosis NCPF3209 = assay: microbe, parasite or virus in culture; type: cell-based, Candida parapsilosis; settings: Lodderomyces parapsilosis
Procedure, shortened: as §2

Candida auris TDG2211 = assay: microbe, parasite or virus in culture; type: cell-based; settings: Candidozyma auris
Procedure, shortened: (§3)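 MIC = lowest concentration inhibiting growth ≥50% relative to drug-free control, read by OD530 nm after 24 h at 37° C. Medium: RPMI 1640/MOPS/2% glucose, pH 7.0. Inoculum 0.5-5×10^5/mL.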

Candida auris TDG2506 = assay: microbe, parasite or virus in culture; type: cell-based; settings: Candidozyma auris
Procedure, shortened: as §3

C. auris TDG1912 = assay: Candida panel MIC, serial dilution in 96-well plates; type: cell-based; settings: Candidozyma auris, TDG1912; Table 4; 24 hours, ≥50% inhibition; read-out: MIC C. auris TDG1912
Procedure, shortened: as §1

C. tropicalis NCPF8760 = assay: as above; type: cell-based
Procedure, shortened: as §1

Candida auris TDG1102 = assay: as above; type: cell-based; settings: Candidozyma auris, TDG1102; Table 4, extended panel; 24 hours, ≥50% inhibition; read-out: MIC Candida auris TDG1102
Procedure, shortened: as §1

Candida auris TDG2512 = assay: as above; type: cell-based; settings: Candidozyma auris, TDG2512; Table 4, extended panel; 24 hours, ≥50% inhibition; read-out: MIC Candida auris TDG2512
Procedure, shortened: as §1

C. auris 8971 = assay: as above; type: cell-based, Candida auris
Procedure, shortened: as §3

C. auris 8977 = assay: as above; type: cell-based, Candida auris
Procedure, shortened: as §3

C. auris 8984 = assay: as above; type: cell-based, Candida auris
Procedure, shortened: as §3

C. albicans 3363 = assay: Candida albicans panel MIC; type: cell-based; settings: Table 6, Candida albicans panel
Description: (§4) The minimum inhibitory concentration of test compounds were determined in a panel of Candida species (see Table 4 below), using the a serial dilution method in 96-well plates using the following protocol.
(§5) Starter cultures of fungal strains to be tested were grown in 3 mL of RPMI 2% glucose media incubated at 37° C. with shaking at 200 rpm overnight. The culture media used was 900 mL H2O; 10.4 g RPMI 1640 (with L-glutamine and a pH indicator but without bicarbonate); 34.5 g MOPS and 18 g glucose. The pH of the media was adjusted to 7.0 with 1 M sodium hydroxide.
(§6) Solutions of the compound to be tested were prepared by dissolving the compound in DMSO and subsequently into media to the desired concentrations. 200 μL of compound solution was then added to the wells of the 96-well plate using a serial dilution method row-by row of the plate to give a compound concentration gradient across the plate of from 128 μg/mL to 0.25 μg/mL. The last two rows of each plate were control rows containing the culture media alone and the media plus fungi.
(§7) The fungi starter cultures were diluted 1:10 in water in cuvettes. This was then further diluted to an optical density (OD600) of 0.01 in media. 100 μL of the fungi was added to each well giving a starting concentration of fungus of 0.5-5×10^5/mL. One species of fungus was used on each plate. The plates were then held at 37° C. for 24 hours.
(§8) A plate reader was used to measure growth in each well at OD530 nm and the MIC was determined for each test compound. The MIC is defined as the lowest concentration giving rise to inhibition of ≥50% of that of the drug-free control well containing the fungus and media.
(§9) The compounds shown in Table 6 were tested against a further panel of Candida albicans.

C. albicans 3645 = assay: Candida albicans panel MIC; type: cell-based; settings: Table 6, Candida albicans panel
Description: as §4, §5, §6, §7, §8, §9

C. albicans 3880 = assay: Candida albicans panel MIC; type: cell-based; settings: Table 6, Candida albicans panel
Description: as §4, §5, §6, §7, §8, §9

C. albicans 3881 = assay: Candida albicans panel MIC; type: cell-based; settings: Table 6, Candida albicans panel
Description: as §4, §5, §6, §7, §8, §9

C. albicans 3882 = assay: Candida albicans panel MIC; type: cell-based; settings: Table 6, Candida albicans panel
Description: as §4, §5, §6, §7, §8, §9

C. albicans 3990 = assay: Candida albicans panel MIC; type: cell-based; settings: Table 6, Candida albicans panel
Description: as §4, §5, §6, §7, §8, §9

C. albicans 8112 = assay: Candida albicans panel MIC; type: cell-based; settings: Table 6, Candida albicans panel
Description: as §4, §5, §6, §7, §8, §9

[1] = Candida albicans, Table 4, common panel, 24 hours, ≥50% inhibition
[2] = Table 6, Candida albicans panel
[3] = NCPF8018, Table 4, common panel, 24 hours, ≥50% inhibition, read-out: MIC C. glabrata NCPF8018
[4] = NCPF3876, Table 4, common panel, 24 hours, ≥50% inhibition, read-out: MIC C. krusei NCPF3876
[5] = NCPF3209, Table 4, common panel, 24 hours, ≥50% inhibition, read-out: MIC C. parapsilosis NCPF3209
[6] = TDG2211, Table 4, extended panel, 24 hours, ≥50% inhibition, read-out: MIC Candida auris TDG2211
[7] = TDG2506, Table 4, extended panel, 24 hours, ≥50% inhibition, read-out: MIC Candida auris TDG2506
[8] = NCPF8760, Table 4, common panel, 24 hours, ≥50% inhibition, read-out: MIC C. tropicalis NCPF8760
[9] = Candidozyma auris, 8971, Table 4, extended panel, 24 hours, ≥50% inhibition, read-out: MIC C. auris 8971
[10] = Candidozyma auris, 8977, Table 4, extended panel, 24 hours, ≥50% inhibition, read-out: MIC C. auris 8977
[11] = Candidozyma auris, 8984, Table 4, extended panel, 24 hours, ≥50% inhibition, read-out: MIC C. auris 8984
[12] = NCPF8018, read-out: MIC C. Glabrata NCPF8018
[13] = NCPF3876, read-out: MIC C. Krusei NCPF3876
[14] = NCPF3209, read-out: MIC C. Parapsilosis NCPF3209
[15] = NCPF8760, read-out: MIC C. Tropicalis NCPF8760

SMILES: OC(CN1CCC2(CCC(Nc3ccc(Cc4ccccc4)cc3)CC2)C1)(Cn1cncn1)c1ccc(F)cc1F (stereo not shown) [Example 13, 1-(8-((4-benzylphenyl)amino)-2-azaspiro[4.5]decan-2-yl)-2-(2,4-difluorophenyl)-3-(1H-1,2,4-triazol-1-yl)propan-2-ol]
- MIC (C. albicans NCPF3281; [1]): ≤ 0.125 mg/L
- MIC (C. albicans NCPF3281; [2]): ≤ 0.00098 mg/L
- MIC (C. glabrata NCPF8018; [3]): 0.25 mg/L (≈ 0.448 µM)
- MIC (C. krusei NCPF3876; [4]): ≤ 0.125 mg/L
- MIC (C. parapsilosis NCPF3209; [5]): ≤ 0.125 mg/L
- MIC (Candida auris TDG2211; [6]): ≤ 0.125 mg/L
- MIC (Candida auris TDG2506; [7]): ≤ 0.125 mg/L
- MIC (C. auris TDG1912): 0.25 mg/L (≈ 0.448 µM)
- MIC (C. tropicalis NCPF8760; [8]): ≤ 0.125 mg/L
- MIC (Candida auris TDG1102): ≤ 0.125 mg/L
- MIC (Candida auris TDG2512): ≤ 0.125 mg/L
- MIC (C. auris 8971; [9]): ≤ 0.125 mg/L
- MIC (C. auris 8977; [10]): ≤ 0.125 mg/L
- MIC (C. auris 8984; [11]): ≤ 0.125 mg/L
- MIC (C. albicans 3363): 0.125 mg/L (≈ 0.224 µM)
- MIC (C. albicans 3645): 0.00781 mg/L (≈ 0.014 µM)
- MIC (C. albicans 3880): 0.25 mg/L (≈ 0.448 µM)
- MIC (C. albicans 3881): 0.25 mg/L (≈ 0.448 µM)
- MIC (C. albicans 3882): 0.0313 to 2 mg/L (≈ 0.0561 to 3.59 µM)
- MIC (C. albicans 3990): 0.0625 mg/L (≈ 0.112 µM)
- MIC (C. albicans 8112): 0.00049 to 0.00391 mg/L (≈ 0.000879 to 0.00701 µM)

SMILES: OC(CN1CCC(Nc2ccc(OCc3ccccc3)cc2)CC1)(Cn1cncn1)c1ccc(F)cc1F (stereo not shown) [Example 90]
- MIC (C. albicans NCPF3281; [1]): 0.00391 mg/L (≈ 0.00753 µM)
- MIC (C. albicans NCPF3281; [2]): 0.00391 mg/L (≈ 0.00753 µM)
- MIC (C. glabrata NCPF8018; [12]): 0.0625 mg/L (≈ 0.12 µM)
- MIC (C. glabrata NCPF8018; [3]): 0.0625 mg/L (≈ 0.12 µM)
- MIC (C. krusei NCPF3876; [13]): 0.0313 mg/L (≈ 0.0602 µM)
- MIC (C. krusei NCPF3876; [4]): 0.0313 mg/L (≈ 0.0602 µM)
- MIC (C. parapsilosis NCPF3209; [14]): 0.00391 mg/L (≈ 0.00753 µM)
- MIC (C. parapsilosis NCPF3209; [5]): 0.00391 mg/L (≈ 0.00753 µM)
- MIC (Candida auris TDG2211; [6]): 0.003 mg/L (≈ 0.00577 µM)
- MIC (Candida auris TDG2506; [7]): 0.003 mg/L (≈ 0.00577 µM)
- MIC (C. tropicalis NCPF8760; [8]): 0.0625 mg/L (≈ 0.12 µM)
- MIC (C. tropicalis NCPF8760; [15]): 0.0625 mg/L (≈ 0.12 µM)
- MIC (Candida auris TDG1102): 0.0156 mg/L (≈ 0.0301 µM)
- MIC (Candida auris TDG2512): 0.00391 mg/L (≈ 0.00753 µM)
- MIC (C. auris 8971; [9]): 0.003 mg/L (≈ 0.00577 µM)
- MIC (C. auris 8977; [10]): 0.00781 mg/L (≈ 0.015 µM)
- MIC (C. auris 8984; [11]): 0.003 mg/L (≈ 0.00577 µM)
- MIC (C. albicans 3363): 0.008 to 0.03 mg/L (≈ 0.0154 to 0.0577 µM)
- MIC (C. albicans 3645): 0.00391 mg/L (≈ 0.00753 µM)
- MIC (C. albicans 3880): 0.00391 mg/L (≈ 0.00753 µM)
- MIC (C. albicans 3881): 0.0078 to 0.0313 mg/L (≈ 0.015 to 0.0602 µM)
- MIC (C. albicans 3882): 0.00391 mg/L (≈ 0.00753 µM)
- MIC (C. albicans 3990): 0.0039 mg/L (≈ 0.00751 µM)
- MIC (C. albicans 8112): 0.00391 mg/L (≈ 0.00753 µM)

SMILES: C[C@@H](c1ncncc1F)[C@](O)(Cn1cncn1)c1ccc(F)cc1F [Voriconazole, voriconazole, reference compound]
- MIC (C. albicans NCPF3281; [2]): ≤ 0.007 mg/L
- MIC (C. glabrata NCPF8018; [12]): 1 mg/L (≈ 2.86 µM)
- MIC (C. krusei NCPF3876; [13]): 0.5 to 2 mg/L (≈ 1.43 to 5.73 µM)
- MIC (C. parapsilosis NCPF3209; [14]): ≤ 0.25 mg/L
- MIC (Candida auris TDG2211; TDG2211, read-out: MIC C. auris 2211): > 128 mg/L
- MIC (Candida auris TDG2211; [6]): > 128 mg/L
- MIC (Candida auris TDG2506; TDG2506, read-out: MIC C. auris 2506): 2 mg/L (≈ 5.73 µM)
- MIC (Candida auris TDG2506; [7]): 2 mg/L (≈ 5.73 µM)
- MIC (C. auris TDG1912): > 32 mg/L
- MIC (C. tropicalis NCPF8760; [15]): 4 mg/L (≈ 11.5 µM)
- MIC (Candida auris TDG1102): > 128 mg/L
- MIC (Candida auris TDG2512): > 128 mg/L
- MIC (C. auris 8971; Candidozyma auris, 8971, read-out: MIC C. auris 8971): > 32 mg/L
- MIC (C. auris 8971; [9]): > 32 mg/L
- MIC (C. auris 8977; Candidozyma auris, 8977, read-out: MIC C. auris 8977): 32 mg/L (≈ 91.6 µM)
- MIC (C. auris 8977; [10]): 32 mg/L (≈ 91.6 µM)
- MIC (C. auris 8984; Candidozyma auris, 8984, read-out: MIC C. auris 8984): > 128 mg/L
- MIC (C. auris 8984; [11]): > 128 mg/L
- MIC (C. albicans 3363): 1 mg/L (≈ 2.86 µM)
- MIC (C. albicans 3645): ≤ 0.0078 mg/L
- MIC (C. albicans 3880): 0.25 mg/L (≈ 0.716 µM)
- MIC (C. albicans 3881): 0.25 mg/L (≈ 0.716 µM)
- MIC (C. albicans 3882): 0.25 mg/L (≈ 0.716 µM)
- MIC (C. albicans 3990): 0.25 mg/L (≈ 0.716 µM)
- MIC (C. albicans 8112): ≤ 0.00781 mg/L
